Assay results as given in ChEMBL document CHEMBL5108067, “Discovery of Potent OTUB1/USP8 Dual Inhibitors Targeting Proteostasis in Non-Small-Cell Lung Cancer” (J Med Chem, 2022).

Legend:
[1] = molecular target: Ubiquitin carboxyl-terminal hydrolase 7 (Homo sapiens, UniProt Q93009); test: Inhibition of USP7 (unknown origin) using Ub-Rho measured after 0.5 to 3 hrs
[2] = molecular target: T1, Ubiquitin carboxyl-terminal hydrolase 1 (Homo sapiens, UniProt O94782); test: Inhibition of USP1 (unknown origin) using Ub-Rho measured after 0.5 to 3 hrs
T1 sequence (O94782 whole entry): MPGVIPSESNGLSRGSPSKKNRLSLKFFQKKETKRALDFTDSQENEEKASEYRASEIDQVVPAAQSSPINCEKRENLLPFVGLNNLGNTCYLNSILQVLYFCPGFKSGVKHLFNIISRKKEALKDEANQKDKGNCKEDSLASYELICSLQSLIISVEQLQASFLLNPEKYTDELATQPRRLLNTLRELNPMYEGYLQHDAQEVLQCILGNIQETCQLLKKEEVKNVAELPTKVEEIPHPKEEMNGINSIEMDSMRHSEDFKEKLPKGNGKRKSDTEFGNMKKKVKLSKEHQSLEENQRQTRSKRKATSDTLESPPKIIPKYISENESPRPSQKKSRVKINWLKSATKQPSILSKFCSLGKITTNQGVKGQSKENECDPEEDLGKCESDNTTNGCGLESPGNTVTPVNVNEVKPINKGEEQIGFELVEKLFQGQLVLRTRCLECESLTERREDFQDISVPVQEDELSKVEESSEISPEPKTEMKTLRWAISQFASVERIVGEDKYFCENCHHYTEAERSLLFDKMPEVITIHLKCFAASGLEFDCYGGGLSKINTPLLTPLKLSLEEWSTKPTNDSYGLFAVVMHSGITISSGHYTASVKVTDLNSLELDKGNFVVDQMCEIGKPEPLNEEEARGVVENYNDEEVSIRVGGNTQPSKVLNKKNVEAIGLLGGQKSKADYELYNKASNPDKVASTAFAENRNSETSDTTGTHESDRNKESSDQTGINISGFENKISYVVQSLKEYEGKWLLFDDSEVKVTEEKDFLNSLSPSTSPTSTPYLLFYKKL

[3] = molecular target: T2, Ubiquitin carboxyl-terminal hydrolase 36 (Homo sapiens, UniProt Q9P275); test: Inhibition of USP36 (unknown origin) using Ub-Rho measured after 0.5 to 3 hrs
T2 sequence (Q9P275 whole entry): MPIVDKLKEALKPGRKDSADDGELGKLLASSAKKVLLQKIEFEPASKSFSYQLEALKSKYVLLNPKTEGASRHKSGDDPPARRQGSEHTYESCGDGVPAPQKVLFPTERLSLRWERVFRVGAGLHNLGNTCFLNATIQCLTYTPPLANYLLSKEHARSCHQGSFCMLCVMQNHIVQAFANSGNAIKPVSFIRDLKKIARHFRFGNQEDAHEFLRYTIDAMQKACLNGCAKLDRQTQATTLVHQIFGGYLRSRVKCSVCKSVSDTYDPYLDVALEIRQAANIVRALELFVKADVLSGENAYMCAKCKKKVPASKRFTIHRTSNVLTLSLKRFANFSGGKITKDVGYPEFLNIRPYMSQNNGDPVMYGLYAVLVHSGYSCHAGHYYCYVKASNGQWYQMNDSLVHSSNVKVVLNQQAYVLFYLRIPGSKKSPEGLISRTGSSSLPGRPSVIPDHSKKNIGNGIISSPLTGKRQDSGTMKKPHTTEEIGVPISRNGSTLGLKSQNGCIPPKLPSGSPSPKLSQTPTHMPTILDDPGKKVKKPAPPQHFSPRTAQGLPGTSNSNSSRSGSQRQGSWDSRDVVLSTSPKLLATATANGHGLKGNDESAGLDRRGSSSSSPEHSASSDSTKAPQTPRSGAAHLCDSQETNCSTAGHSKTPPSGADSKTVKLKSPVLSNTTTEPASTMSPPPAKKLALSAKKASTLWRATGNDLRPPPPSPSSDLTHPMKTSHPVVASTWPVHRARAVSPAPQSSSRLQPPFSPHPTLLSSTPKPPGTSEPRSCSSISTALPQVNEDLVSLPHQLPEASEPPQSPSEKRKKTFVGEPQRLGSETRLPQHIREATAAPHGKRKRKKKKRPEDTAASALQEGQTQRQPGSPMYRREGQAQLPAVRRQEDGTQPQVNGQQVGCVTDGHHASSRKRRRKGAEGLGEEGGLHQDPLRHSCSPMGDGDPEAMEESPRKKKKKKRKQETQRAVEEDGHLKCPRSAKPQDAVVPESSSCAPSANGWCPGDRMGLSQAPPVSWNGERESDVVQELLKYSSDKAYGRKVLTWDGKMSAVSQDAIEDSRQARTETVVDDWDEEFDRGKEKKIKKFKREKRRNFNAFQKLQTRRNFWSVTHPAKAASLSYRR

[4] = system: NCI-H1975; test: Antiproliferative activity against human NCI-H1975 cells harboring wild type KRAS incubated for 72 hrs by MTT assay; format: functional, cell-based; details: NCI-H1975, 72 h
[5] = Aqueous solubility of the compound measured after 24 hr by […] LC-MS/MS analysis; format: physicochemical; details: buffer

Chain of Ubiquitin carboxyl-terminal hydrolase 7 (Q93009 whole entry): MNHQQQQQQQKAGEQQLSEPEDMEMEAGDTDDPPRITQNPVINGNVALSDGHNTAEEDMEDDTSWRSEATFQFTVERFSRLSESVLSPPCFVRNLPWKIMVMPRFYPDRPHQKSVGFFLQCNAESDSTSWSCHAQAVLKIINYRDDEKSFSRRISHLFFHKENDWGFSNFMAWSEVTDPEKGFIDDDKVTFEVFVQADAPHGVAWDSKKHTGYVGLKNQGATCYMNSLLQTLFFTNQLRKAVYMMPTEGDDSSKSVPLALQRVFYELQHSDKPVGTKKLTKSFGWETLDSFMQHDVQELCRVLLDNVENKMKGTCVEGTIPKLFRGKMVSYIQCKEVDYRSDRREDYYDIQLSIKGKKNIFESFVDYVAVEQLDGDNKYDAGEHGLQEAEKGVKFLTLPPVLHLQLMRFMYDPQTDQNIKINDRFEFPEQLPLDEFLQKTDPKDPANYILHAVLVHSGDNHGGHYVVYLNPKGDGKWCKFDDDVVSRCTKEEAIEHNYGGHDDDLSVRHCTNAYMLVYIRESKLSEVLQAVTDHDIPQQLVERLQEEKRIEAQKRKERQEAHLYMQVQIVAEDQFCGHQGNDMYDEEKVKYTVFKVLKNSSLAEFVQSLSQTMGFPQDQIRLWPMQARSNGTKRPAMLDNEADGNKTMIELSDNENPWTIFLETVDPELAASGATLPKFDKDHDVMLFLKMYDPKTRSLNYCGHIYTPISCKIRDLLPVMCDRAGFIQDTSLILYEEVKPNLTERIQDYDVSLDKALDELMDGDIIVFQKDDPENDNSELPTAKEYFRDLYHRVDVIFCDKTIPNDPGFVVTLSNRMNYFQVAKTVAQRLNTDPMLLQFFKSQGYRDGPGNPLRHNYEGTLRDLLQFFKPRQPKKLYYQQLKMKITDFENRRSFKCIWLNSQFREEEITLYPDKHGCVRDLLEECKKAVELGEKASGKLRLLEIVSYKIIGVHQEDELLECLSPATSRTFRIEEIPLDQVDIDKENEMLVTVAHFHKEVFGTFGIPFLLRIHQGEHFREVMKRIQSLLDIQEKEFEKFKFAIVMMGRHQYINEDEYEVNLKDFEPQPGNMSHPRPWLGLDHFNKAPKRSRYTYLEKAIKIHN

IC50 [1] [µM]	IC50 [2] [µM]	IC50 [3] [µM]	IC50 [4] [µM]	solubility [5]	Compound
> 10	1.37	8.4	0.118	Soluble	CN1CC[C@@H](Oc2ccc(F)c(-c3nc4c(o3)C(=O)c3ccccc3C4=O)c2Cl)C1
> 10	2.1	7.2	0.121	Soluble	CN1CC[C@@H](Oc2ccc(Cl)c(-c3nc4c(o3)C(=O)c3ccccc3C4=O)c2F)C1
> 10	1.9	> 10	0.088	Soluble	CN1CC[C@@H](Oc2ccc(Cl)c(-c3nc4c(o3)C(=O)c3ccccc3C4=O)c2)C1
> 10	0.99	3.9	0.098	–	O=C1c2ccccc2C(=O)c2oc(-c3cccnc3)nc21
